In patent US20210171576A1, “METHODS FOR TREATING CANCER WITH ACYLDEPSIPEPTIDE ANALOGS” (priority 2018, published 2021):
Blank lines part the entries; values can stand above or below the molecule they belong to. Where a SMILES comes first, the peptide text is derived from it. Bridges are numbered along the chain shown (N, C = ends). [ ]: non-standard residue; d: D form. The star is where a group is joined. Pro(4R-Me) = C[C@H]1CN[C@H](C(=O)O)C1; NMeA = CN[C@@H](C)C(=O)O; X1 = CCC/C=C/C=C/C(=O)*

Columns and labels:
[1] = target: T1, human mitochondrial CIpP (HsCIpP) (Homo sapiens, UniProt Q16740); assay: Screen of ADEP analogs against HsCIpP: relative degradation (RD) index, casein-FITC degradation relative to E. coli CIpAP; format: biochemical; design: key: casein-FITC degradation by HsClpP relative to EcClpAP
T1 construct: made in house; host or cells: E. coli SG1146 (BL21(DE3) ΔclpP::cat)
Text: Structural analogs of acyldepsipeptide (ADEP) (Goodreid et al., 2016) that were previously developed as potential antibiotics against bacterial CIpP were screened and assessed for their ability to activate and dysregulate the protease activity of HsCIpP, by measuring their relative degradation (RD) index. Note that ADEP-28 was also previously reported by Carney et al. (2014). Details of the experimental protocol have been described in Leung et al., 2011. The RD index is defined as follows: […]
Δφ is the change in fluorescence after 6 hr of starting the reaction measured using 485 nm excitation and 535 nm emission, which primarily detects the signal from casein-FITC. E. coli CIpAP was used as a benchmark for maximum CIpP proteolytic activity. The CIpP in the numerator can be from any other organism. RD25 measurements refer to the measurement in the presence of 25 μM compound. All ADEP analogs were first screened at 25 μM, and their RD25 scores were calculated using the above formula and method as described in Leung et al., 2011 (FIG. 1A). Those that achieved RD25≥0.87 were screened a second time at 5 μM, followed by calculation of their RD5 scores. The top analogs with RD5≥0.74 were screened a third time at 1 μM, followed by calculation of their RD1 scores (FIG. 1B).
To identify ADEP analogs that allow HsCIpP to degrade folded proteins independent of HsCIpX+ATP (i.e., that activate or dysregulate HsCIpP), the inventors employed the in vitro screening method that was used for identifying small molecule activators of Escherichia coli CIpP (EcCIpP) (Leung et al., 2011). In this approach, the ability of HsCIpP to degrade FITC-labeled casein (casein-FITC) was measured and compared to the ability of EcCIpAP to degrade casein-FITC. This is quantitatively expressed as relative degradation (RD) index (Leung et al., 2011).

HsCIpP [2] = target: T2, HsCIpP (Homo sapiens, UniProt Q16740, P57S); assay: Peptidase activity assay (Ac-WLA-AMC cleavage) with ADEP; format: biochemical; details: 6 μM HsCIpP, 100 μM Ac-WLA-AMC
T2 construct: 2x(His6-thrombin)-SUMO (N, cleaved yes); made in house; host or cells: E. coli (SG1146 stated for HsClpP; 'a similar protocol' for HsClpX)
Experimental: The peptidase activity of purified, untagged HsCIpP was assessed by monitoring the degradation of peptidyl substrates labelled with a C-terminal 7-amido-4-methylcoumarin (AMC) fluorophore. […] To identify a suitable peptidyl substrate, commercially available AMC-labelled peptides were purchased and tested for degradation by HsCIpP. These include N-acetyl-Trp-Leu-Ala-AMC (Ac-WLA-AMC) (R&D Systems) that was also previously used by Csizmadia et (Csizmadia et al., 2016), benzyloxycarbonyl-Arg-Arg-AMC (Z-RR-AMC) (Sigma-Aldrich), N-acetyl-Leu-Glu-His-Asp-AMC […] (Sigma-Aldrich), N-acetyl-Val-Glu-Thr-Asp-AMC (Ac-VETD-AMC) (Sigma-Aldrich), and benzyloxycarbonyl-Leu-Leu-Leu-AMC (Z-LLL-AMC) (Sigma-Aldrich). Suc-LY-AMC (MP Biomedicals) was also tested as a negative control. All stock solutions of the AMC-labelled peptides were prepared by dissolving the lyophilized peptides in DMSO at 90 mM or a lower concentration recommended by the manufacturer. […] Degradation of the peptidyl substrates and subsequent release of the free AMC moiety was monitored by fluorescence with λex=360 nm and λem=440 nm using the EnSpire 2300 Multilabel Reader (Perkin-Elmer) set to perform a reading every 30 s with 20 flashes. A total of 240 readings were collected for each of three independent replicates prepared for each peptidyl substrate. […]
Initial degradation rates data were analyzed using the Hill model. […]

HEK293 cells = details: reported (Bram et al., 2006); cited from earlier work
HsCIpP [3] = target: T2, HsCIpP; assay: Casein-FITC degradation by HsCIpP with HsCIpX titrated; format: biochemical; details: HsCIpX titrated 0 to 18 μM, 3 μM HsCIpP
Experimental: The protease activity of purified HsCIpP was assessed by monitoring the degradation of bovine milk casein labelled with fluorescein isothiocyanate (casein-FITC) (Sigma-Aldrich) in the presence of ADEP and/or purified HsCIpX. All reactions were carried out in 25 mM HEPES, pH 7.5, 35 mM KCl, 25 mM MgCl2, 0.03% Tween-20, 10% glycerol, and 1 mM DTT, supplemented with 16 mM creatine phosphate and 300 μM ATP. HsCIpP was used at 3 μM (final monomeric concentration) and casein-FITC was added at the final concentration of 10 μM. 13 U of creatine phosphokinase (Sigma-Aldrich) was also added for ATP regeneration. DMSO was present at 1% (v:v) final concentration in the experiments that involve the use of ADEP analogs. All reactions were carried out with 150 μL of the reaction mix per well in a 96-well black flat-bottom plate at 37° C. Degradation of casein-FITC and subsequent release of the free FITC moiety was monitored by fluorescence with λex=494 nm and λem=518 nm using the EnSpire 2300 Multilabel Reader set to perform a reading every 40 s with 20 flashes. A total of 100 readings were collected in each experiment.
To investigate the casein-FITC degradation by HsCIpXP, kinetic analysis was performed with HsCIpP held constant at 3 μM (final monomeric concentration) and HsCIpX was titrated from 0 to 18 μM (final monomeric concentration). Initial rates (v0) were determined from data collected over three independent experiments. Non-linear regression analysis was then performed on the initial rates data using the Hill equation, as follows: […]
Vmax is maximal velocity, h is the Hill coefficient, and K0.5 is the microscopic apparent dissociation constant.

T1 sequence (Q16740 57-277): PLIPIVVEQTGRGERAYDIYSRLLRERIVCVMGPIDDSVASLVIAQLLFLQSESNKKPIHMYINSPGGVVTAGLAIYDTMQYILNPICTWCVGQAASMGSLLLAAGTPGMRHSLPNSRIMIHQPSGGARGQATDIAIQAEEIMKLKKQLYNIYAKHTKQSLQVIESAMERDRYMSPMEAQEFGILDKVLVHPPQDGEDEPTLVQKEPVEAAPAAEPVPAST
T2 sequence (Q16740 57-277 P57S): as the sequence (Q16740 57-277) above, with P1S counted along it

Hs RD1 ([1]; RD value at 1 μM of the ADEP analog): 0.32
Hs RD5 ([1]; RD value at 5 μM of the ADEP analog): 0.78
Hs RD25 ([1]; RD value at 25 μM of the ADEP analog, measure of ability to activate HsCIpP): 1.03
Hill coefficient (h), peptidase activity (HsCIpP [2]): 0.8
Molecule: CCC/C=C/C=C/C(=O)N[C@@H](Cc1ccccc1)C(=O)N[C@H]1COC(=O)[C@@H]2C[C@@H](C)CN2C(=O)[C@H](C)NC(=O)[C@H](C)N(C)C(=O)[C@@H]2CCCN2C1=O [ADEP-04] (X1-FSP[NMeA]A[Pro(4R-Me)]; ester 2-C)

Molecule: Cc1nc(N)nc(N)c1-c1ccc(Cl)c(Cl)c1 [Metoprine]
IC50 (HEK293 cells): 800 nM

Molecule: N.N.[Cl][Pt][Cl] [cisplatin]
IC50 (HEK293 cells): 430 nM

Hill coefficient (h) (HsCIpP [3]): 1.25
Molecule: HsCIpX: the AAA+ ATPase HsCIpX, untagged human mitochondrial ClpX, partner of HsCIpP
Vmax (HsCIpP [3]): 6.88 RFU.s^−1
Kd (HsCIpP [3]; read-out: K0.5): 5700 nM
